From patent US4965280A, “Antifungal carbinols” (E. I. Du Pont de Nemours and Company, priority 1989, dated 1990)

What was measured:
Experiment in all cases: Test D
VELVETLEAF = type: in vivo, Abutilon theophrasti
Procedure: The Corn and Sorghum Herbicide Test included the following species in both the preemergence and postemergence evaluations:
Postemergence plantings were grown in Sassafras sandy loam soil. Corn and soybeans were grown in separate 25 cm diameter containers. Sorghum and the seven grass weed species were grown in two 18 cm diameter containers, 4 species per container. The seven broadleaf weed species were also grown in two 18 cm diameter containers, 4 species in one container, 3 species in the second container. One additional planting of corn in an 18 cm diameter container was made. The soil surface of this additional container of corn was covered with the absorbent, perlite, before spray treatment so that test chemicals would enter the plant only via the foliage. The plants were grown 10-21 days, dependent upon the species and then sprayed postemergence with the test chemicals dissolved in a nonpytotoxic solvent.
Preemergence plantings were grown in fertilized Tama silt loam soil. These plantings are identical to those described in the postemergence section, with the exception of the corn planting having perlite covering the soil surface. These plantings were made the day of or the day before spraying the test chemicals dissolved in a nonphytotoxic solvent.
Treated plants and controls were maintained in the greenhouse for 2 to 4 weeks. Visual planting response ratings were made on a percentage scale of 0 to 100 in comparison with a control where 0=no injury, and 100=death.

G522 SORGHUM = type: in vivo, Sorghum bicolor
WILLMS SOYBEANS = type: in vivo, Glycine max
GIANT FOXTAIL = type: in vivo, Setaria faberii
FALL PANICUM = type: in vivo, Panicum dichotomiflorum
LARGE CRABGRASS = type: in vivo, Digitaria sanguinalis
GREEN FOXTAIL = type: in vivo, Setaria viridis

Structure (SMILES): C=C(c1ccccc1)C(O)(Cn1cncn1)c1ccc(Cl)cc1Cl (stereo not shown) [Example 50, 2-(2,4-Dichlorophenyl)-3-phenyl-1-(1H-1,2,4-triazol-1-yl)-3-buten-2-ol]
- plant response (VELVETLEAF; POSTEMERGENCE 0250 GM/HA): 0%
- plant response (VELVETLEAF; POSTEMERGENCE 0500 GM/HA): 25%
- plant response (VELVETLEAF; PREEMERGENCE 0064 GM/HA): 0%
- plant response (VELVETLEAF; PREEMERGENCE 0125 GM/HA): 25%
- plant response (VELVETLEAF; PREEMERGENCE 0250 GM/HA): 40%
- plant response (VELVETLEAF; PREEMERGENCE 0500 GM/HA): 65%
- plant response (G522 SORGHUM; POSTEMERGENCE 0250 GM/HA): 0%
- plant response (G522 SORGHUM; POSTEMERGENCE 0500 GM/HA): 0%
- plant response (G522 SORGHUM; PREEMERGENCE 0064 GM/HA): 0%
- plant response (G522 SORGHUM; PREEMERGENCE 0125 GM/HA): 0%
- plant response (G522 SORGHUM; PREEMERGENCE 0250 GM/HA): 0%
- plant response (G522 SORGHUM; PREEMERGENCE 0500 GM/HA): 0%
- plant response (WILLMS SOYBEANS; POSTEMERGENCE 0250 GM/HA): 35%
- plant response (WILLMS SOYBEANS; POSTEMERGENCE 0500 GM/HA): 65%
- plant response (WILLMS SOYBEANS; PREEMERGENCE 0064 GM/HA): 0%
- plant response (WILLMS SOYBEANS; PREEMERGENCE 0125 GM/HA): 0%
- plant response (WILLMS SOYBEANS; PREEMERGENCE 0250 GM/HA): 0%
- plant response (WILLMS SOYBEANS; PREEMERGENCE 0500 GM/HA): 20%
- plant response (GIANT FOXTAIL; POSTEMERGENCE 0250 GM/HA): 0%
- plant response (GIANT FOXTAIL; POSTEMERGENCE 0500 GM/HA): 0%
- plant response (GIANT FOXTAIL; PREEMERGENCE 0064 GM/HA): 20%
- plant response (GIANT FOXTAIL; PREEMERGENCE 0125 GM/HA): 65%
- plant response (GIANT FOXTAIL; PREEMERGENCE 0250 GM/HA): 75%
- plant response (GIANT FOXTAIL; PREEMERGENCE 0500 GM/HA): 85%
- plant response (FALL PANICUM; POSTEMERGENCE 0250 GM/HA): 20%
- plant response (FALL PANICUM; POSTEMERGENCE 0500 GM/HA): 35%
- plant response (FALL PANICUM; PREEMERGENCE 0064 GM/HA): 20%
- plant response (FALL PANICUM; PREEMERGENCE 0125 GM/HA): 35%
- plant response (FALL PANICUM; PREEMERGENCE 0250 GM/HA): 60%
- plant response (FALL PANICUM; PREEMERGENCE 0500 GM/HA): 95%
- plant response (LARGE CRABGRASS; POSTEMERGENCE 0250 GM/HA): 70%
- plant response (LARGE CRABGRASS; POSTEMERGENCE 0500 GM/HA): 100%
- plant response (LARGE CRABGRASS; PREEMERGENCE 0064 GM/HA): 40%
- plant response (LARGE CRABGRASS; PREEMERGENCE 0125 GM/HA): 75%
- plant response (LARGE CRABGRASS; PREEMERGENCE 0250 GM/HA): 100%
- plant response (LARGE CRABGRASS; PREEMERGENCE 0500 GM/HA): 100%
- plant response (GREEN FOXTAIL; POSTEMERGENCE 0250 GM/HA): 0%
- plant response (GREEN FOXTAIL; POSTEMERGENCE 0500 GM/HA): 0%
- plant response (GREEN FOXTAIL; PREEMERGENCE 0064 GM/HA): 0%
- plant response (GREEN FOXTAIL; PREEMERGENCE 0125 GM/HA): 30%
- plant response (GREEN FOXTAIL; PREEMERGENCE 0250 GM/HA): 50%
- plant response (GREEN FOXTAIL; PREEMERGENCE 0500 GM/HA): 85%

Structure (SMILES): C=C(c1ccccc1Cl)C(O)(Cn1cncn1)c1ccc(F)cc1F (stereo not shown) [Example 35]
- plant response (VELVETLEAF; POSTEMERGENCE 0250 GM/HA): 60%
- plant response (VELVETLEAF; POSTEMERGENCE 0500 GM/HA): 90%
- plant response (VELVETLEAF; PREEMERGENCE 0064 GM/HA): 60%
- plant response (VELVETLEAF; PREEMERGENCE 0125 GM/HA): 70%
- plant response (VELVETLEAF; PREEMERGENCE 0250 GM/HA): 100%
- plant response (VELVETLEAF; PREEMERGENCE 0500 GM/HA): 100%
- plant response (G522 SORGHUM; POSTEMERGENCE 0250 GM/HA): 0%
- plant response (G522 SORGHUM; POSTEMERGENCE 0500 GM/HA): 50%
- plant response (G522 SORGHUM; PREEMERGENCE 0064 GM/HA): 0%
- plant response (G522 SORGHUM; PREEMERGENCE 0125 GM/HA): 0%
- plant response (G522 SORGHUM; PREEMERGENCE 0250 GM/HA): 0%
- plant response (G522 SORGHUM; PREEMERGENCE 0500 GM/HA): 0%
- plant response (WILLMS SOYBEANS; POSTEMERGENCE 0250 GM/HA): 10%
- plant response (WILLMS SOYBEANS; POSTEMERGENCE 0500 GM/HA): 30%
- plant response (WILLMS SOYBEANS; PREEMERGENCE 0064 GM/HA): 0%
- plant response (WILLMS SOYBEANS; PREEMERGENCE 0125 GM/HA): 0%
- plant response (WILLMS SOYBEANS; PREEMERGENCE 0250 GM/HA): 0%
- plant response (WILLMS SOYBEANS; PREEMERGENCE 0500 GM/HA): 0%
- plant response (GIANT FOXTAIL; POSTEMERGENCE 0250 GM/HA): 0%
- plant response (GIANT FOXTAIL; POSTEMERGENCE 0500 GM/HA): 60%
- plant response (GIANT FOXTAIL; PREEMERGENCE 0064 GM/HA): 0%
- plant response (GIANT FOXTAIL; PREEMERGENCE 0125 GM/HA): 50%
- plant response (GIANT FOXTAIL; PREEMERGENCE 0250 GM/HA): 80%
- plant response (GIANT FOXTAIL; PREEMERGENCE 0500 GM/HA): 100%
- plant response (FALL PANICUM; PREEMERGENCE 0064 GM/HA): 0%
- plant response (FALL PANICUM; PREEMERGENCE 0125 GM/HA): 50%
- plant response (FALL PANICUM; PREEMERGENCE 0250 GM/HA): 80%
- plant response (FALL PANICUM; PREEMERGENCE 0500 GM/HA): 100%
- plant response (LARGE CRABGRASS; POSTEMERGENCE 0250 GM/HA): 30%
- plant response (LARGE CRABGRASS; POSTEMERGENCE 0500 GM/HA): 30%
- plant response (LARGE CRABGRASS; PREEMERGENCE 0064 GM/HA): 50%
- plant response (LARGE CRABGRASS; PREEMERGENCE 0125 GM/HA): 70%
- plant response (LARGE CRABGRASS; PREEMERGENCE 0250 GM/HA): 95%
- plant response (LARGE CRABGRASS; PREEMERGENCE 0500 GM/HA): 100%
- plant response (GREEN FOXTAIL; POSTEMERGENCE 0250 GM/HA): 0%
- plant response (GREEN FOXTAIL; POSTEMERGENCE 0500 GM/HA): 40%
- plant response (GREEN FOXTAIL; PREEMERGENCE 0064 GM/HA): 30%
- plant response (GREEN FOXTAIL; PREEMERGENCE 0125 GM/HA): 70%
- plant response (GREEN FOXTAIL; PREEMERGENCE 0250 GM/HA): 80%
- plant response (GREEN FOXTAIL; PREEMERGENCE 0500 GM/HA): 100%
